Experimental data as given in patent US20240158446A1, “CYCLIC COMPOUND HAVING SELECTIVE INHIBITORY ACTION ON KRAS OVER HRAS AND NRAS” (CHUGAI SEIYAKU KABUSHIKI KAISHA, priority 2021, published 2024).
*1 amine or outer side, *2 acyl side, *3 side chain or, on linkers, in order; H or OH if unused. Where a SMILES comes first, the peptide text is derived from it. Bridges are numbered along the chain shown (N, C = ends). [ ]: non-standard residue; d: D form. The star is where a group is joined. hPhe(3,5-F2-4-CF3) = N[C@@H](CCc1cc(F)c(C(F)(F)F)c(F)c1)C(=O)O; NPrPhe(4-CF3) = CCCN[C@@H](Cc1ccc(C(F)(F)F)cc1)C(=O)O; NMeAbu(4,4,4-F3) = CN[C@@H](CC(F)(F)F)C(=O)O; X13 = O=C([C@@H](N[*:1])C1CC(F)(F)C1)[*:2]; NMeGly(cPent) = CN[C@H](C(=O)O)C1CCCC1; Ac4c(3,3-F2) = NC1(C(=O)O)CC(F)(F)C1; Nva(3-Et) = CCC(CC)[C@H](N)C(=O)O; αMeI = CC[C@H](C)[C@](C)(N)C(=O)O; NMeD = CN[C@@H](CC(=O)O)C(=O)O; Ac4c(3-oxa) = NC1(C(=O)O)COC1; NMeL = CN[C@@H](CC(C)C)C(=O)O; Morpholide = C1CN(*)CCO1; Ac5c = NC1(C(=O)O)CCCC1; Aze = O=C(O)[C@@H]1CCN1; Sar = CNCC(=O)O

Tests used:
[1] = target: GDP-bound NRAS wild-type protein (Homo sapiens, UniProt P01111); assay: Binding to NRAS by surface plasmon resonance (SPR), Single Cycle Kinetics; conditions: SPR, GDP-bound NRAS wild-type protein vs GDP-bound KRAS wild-type protein
[2] = target: GDP-bound HRAS wild-type protein (Homo sapiens, UniProt P01112); assay: Binding to HRAS by surface plasmon resonance (SPR), Single Cycle Kinetics; conditions: SPR, GDP-bound HRAS wild-type protein vs GDP-bound KRAS wild-type protein
[3] = target: GDP-bound KRAS wild-type protein (Homo sapiens, UniProt P01116); assay: Binding to KRAS by surface plasmon resonance (SPR), Single Cycle Kinetics; conditions: SPR Single Cycle Kinetics, GDP-bound KRAS wild-type protein, 1:1 binding model; read-out: KRAS KD
Sequence of GDP-bound KRAS wild-type protein (P01116 whole entry): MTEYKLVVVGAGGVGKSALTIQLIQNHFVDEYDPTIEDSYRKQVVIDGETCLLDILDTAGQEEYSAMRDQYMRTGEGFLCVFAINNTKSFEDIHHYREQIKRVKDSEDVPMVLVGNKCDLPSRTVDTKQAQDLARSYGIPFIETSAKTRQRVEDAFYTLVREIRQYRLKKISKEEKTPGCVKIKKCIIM

Sequence of GDP-bound HRAS wild-type protein (P01112 whole entry): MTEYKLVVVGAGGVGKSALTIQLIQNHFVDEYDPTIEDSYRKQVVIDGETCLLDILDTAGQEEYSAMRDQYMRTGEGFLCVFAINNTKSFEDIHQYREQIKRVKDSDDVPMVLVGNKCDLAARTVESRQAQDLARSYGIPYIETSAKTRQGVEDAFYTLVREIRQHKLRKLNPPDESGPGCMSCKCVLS
Sequence of GDP-bound NRAS wild-type protein (P01111 whole entry): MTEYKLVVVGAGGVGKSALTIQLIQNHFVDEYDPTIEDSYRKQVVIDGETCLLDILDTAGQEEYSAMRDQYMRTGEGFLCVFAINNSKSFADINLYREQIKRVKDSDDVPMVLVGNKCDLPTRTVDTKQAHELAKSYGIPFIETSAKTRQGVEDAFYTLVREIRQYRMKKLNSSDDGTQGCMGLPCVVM

Row | SMILES | NRAS/KRAS (ratio of KD value with respect to NRAS to KD value with respect to KRAS) [1] | HRAS/KRAS (ratio of KD value with respect to HRAS to KD value with respect to KRAS) [2] | Kd [3] [nM]
1 | CCCN1C(=O)CN(C)C(=O)CN(C)C(=O)[C@H](C(CC)CC)NC(=O)[C@H](CC(C)C)N(C)C(=O)C[C@@H](C(=O)N2CCOCC2)N(C)C(=O)[C@H](C2CCCC2)N(C)C(=O)C2(CCCC2)NC(=O)[C@@H]2CCCN2C(=O)[C@H](CCc2cc(F)c(C(F)(F)F)c(F)c2)NC(=O)CN(C)C(=O)[C@@H]1Cc1ccc(C(F)(F)F)cc1 [PP0768] ([NMeL][Nva(3-Et)][Sar][Sar][NPrPhe(4-CF3)][Sar][hPhe(3,5-F2-4-CF3)]P[Ac5c][NMeGly(cPent)][NMeD]-Morpholide; lactam N-11) | B (a compound having 3 or more and less than 10 is denoted as B) | C (A compound having a KD ratio of 0.1 or more and less than 3 is denoted as C) | 0.97
2 | CCCN1C(=O)CN(C)C(=O)CN(C)C(=O)[C@H](C2CC(F)(F)C2)NC(=O)[C@H](CC(C)C)N(C)C(=O)C[C@@H](C(=O)N2CCOCC2)N(C)C(=O)[C@H](C2CCCC2)N(C)C(=O)C2(CCCC2)NC(=O)[C@@H]2CCCN2C(=O)[C@H](CCc2cc(F)c(C(F)(F)F)c(F)c2)NC(=O)CN(C)C(=O)[C@@H]1Cc1ccc(C(F)(F)F)cc1 [PP0769] ([NMeL][X13][Sar][Sar][NPrPhe(4-CF3)][Sar][hPhe(3,5-F2-4-CF3)]P[Ac5c][NMeGly(cPent)][NMeD]-Morpholide; lactam N-11) | B (a compound having 3 or more and less than 10 is denoted as B) | C (A compound having a KD ratio of 0.1 or more and less than 3 is denoted as C) | 0.21
3 | CCCN1C(=O)CN(C)C(=O)[C@@H]2CCN2C(=O)[C@H]([C@@H](C)CC)NC(=O)[C@H](CC(C)C)N(C)C(=O)C[C@@H](C(=O)N2CCOCC2)N(C)C(=O)[C@H](C2CCCC2)N(C)C(=O)C2(CCCC2)NC(=O)[C@@H]2CCCN2C(=O)[C@H](CCc2cc(F)c(C(F)(F)F)c(F)c2)NC(=O)CN(C)C(=O)[C@@H]1Cc1ccc(C(F)(F)F)cc1 [PP0770] ([NMeL]I[Aze][Sar][NPrPhe(4-CF3)][Sar][hPhe(3,5-F2-4-CF3)]P[Ac5c][NMeGly(cPent)][NMeD]-Morpholide; lactam N-11) | B (a compound having 3 or more and less than 10 is denoted as B) | B (a compound having 3 or more and less than 10 is denoted as B) | 0.84
4 | CCCN1C(=O)CN(C)C(=O)[C@@H]2CCN2C(=O)[C@H]([C@@H](C)CC)NC(=O)[C@H](CC(C)C)N(C)C(=O)C[C@@H](C(=O)N2CCOCC2)N(C)C(=O)[C@H](C2CCCC2)N(C)C(=O)[C@](C)([C@@H](C)CC)NC(=O)[C@@H]2CCCN2C(=O)[C@H](CCc2cc(F)c(C(F)(F)F)c(F)c2)NC(=O)CN(C)C(=O)[C@@H]1Cc1ccc(C(F)(F)F)cc1 [PP0774] ([NMeL]I[Aze][Sar][NPrPhe(4-CF3)][Sar][hPhe(3,5-F2-4-CF3)]P[αMeI][NMeGly(cPent)][NMeD]-Morpholide; lactam N-11) | B (a compound having 3 or more and less than 10 is denoted as B) | B (a compound having 3 or more and less than 10 is denoted as B) | 17
5 | CCCN1C(=O)CN(C)C(=O)[C@@H]2CCN2C(=O)[C@H]([C@@H](C)CC)NC(=O)[C@H](CC(C)C)N(C)C(=O)C[C@@H](C(=O)N2CCOCC2)N(C)C(=O)[C@H](C2CCCC2)N(C)C(=O)C2(COC2)NC(=O)[C@@H]2CCCN2C(=O)[C@H](CCc2cc(F)c(C(F)(F)F)c(F)c2)NC(=O)CN(C)C(=O)[C@@H]1Cc1ccc(C(F)(F)F)cc1 [PP0782] ([NMeL]I[Aze][Sar][NPrPhe(4-CF3)][Sar][hPhe(3,5-F2-4-CF3)]P[Ac4c(3-oxa)][NMeGly(cPent)][NMeD]-Morpholide; lactam N-11) | B (a compound having 3 or more and less than 10 is denoted as B) | B (a compound having 3 or more and less than 10 is denoted as B) | 2.3
6 | CCCN1C(=O)CN(C)C(=O)[C@@H]2CCN2C(=O)[C@H]([C@@H](C)CC)NC(=O)[C@H](CC(C)C)N(C)C(=O)C[C@@H](C(=O)N2CCOCC2)N(C)C(=O)[C@H](C2CCCC2)N(C)C(=O)C2(CC(F)(F)C2)NC(=O)[C@@H]2CCCN2C(=O)[C@H](CCc2cc(F)c(C(F)(F)F)c(F)c2)NC(=O)CN(C)C(=O)[C@@H]1Cc1ccc(C(F)(F)F)cc1 [PP0783] ([NMeL]I[Aze][Sar][NPrPhe(4-CF3)][Sar][hPhe(3,5-F2-4-CF3)]P[Ac4c(3,3-F2)][NMeGly(cPent)][NMeD]-Morpholide; lactam N-11) | B (a compound having 3 or more and less than 10 is denoted as B) | B (a compound having 3 or more and less than 10 is denoted as B) | 0.85
7 | CCCN1C(=O)CN(C)C(=O)[C@@H]2CCN2C(=O)[C@H]([C@@H](C)CC)NC(=O)[C@H](CC(C)C)N(C)C(=O)C[C@@H](C(=O)N2CCOCC2)N(C)C(=O)[C@H](CC(F)(F)F)N(C)C(=O)C2(CCCC2)NC(=O)[C@@H]2CCCN2C(=O)[C@H](CCc2cc(F)c(C(F)(F)F)c(F)c2)NC(=O)CN(C)C(=O)[C@@H]1Cc1ccc(C(F)(F)F)cc1 [PP0784] ([NMeL]I[Aze][Sar][NPrPhe(4-CF3)][Sar][hPhe(3,5-F2-4-CF3)]P[Ac5c][NMeAbu(4,4,4-F3)][NMeD]-Morpholide; lactam N-11) | B (a compound having 3 or more and less than 10 is denoted as B) | B (a compound having 3 or more and less than 10 is denoted as B) | 17
8 | CCCN1C(=O)CN(C)C(=O)[C@@H]2CCN2C(=O)[C@H](C2CC(F)(F)C2)NC(=O)[C@H](CC(C)C)N(C)C(=O)C[C@@H](C(=O)N2CCOCC2)N(C)C(=O)[C@H](C2CCCC2)N(C)C(=O)C2(CCCC2)NC(=O)[C@@H]2CCCN2C(=O)[C@H](CCc2cc(F)c(C(F)(F)F)c(F)c2)NC(=O)CN(C)C(=O)[C@@H]1Cc1ccc(C(F)(F)F)cc1 [PP0786] ([NMeL][X13][Aze][Sar][NPrPhe(4-CF3)][Sar][hPhe(3,5-F2-4-CF3)]P[Ac5c][NMeGly(cPent)][NMeD]-Morpholide; lactam N-11) | B (a compound having 3 or more and less than 10 is denoted as B) | B (a compound having 3 or more and less than 10 is denoted as B) | 0.6
9 | CCCN1C(=O)[C@@H]2CCN2C(=O)CN(C)C(=O)[C@H](C2CC(F)(F)C2)NC(=O)[C@H](CC(C)C)N(C)C(=O)C[C@@H](C(=O)N2CCOCC2)N(C)C(=O)[C@H](C2CCCC2)N(C)C(=O)C2(CCCC2)NC(=O)[C@@H]2CCCN2C(=O)[C@H](CCc2cc(F)c(C(F)(F)F)c(F)c2)NC(=O)CN(C)C(=O)[C@@H]1Cc1ccc(C(F)(F)F)cc1 [PP0787] ([NMeL][X13][Sar][Aze][NPrPhe(4-CF3)][Sar][hPhe(3,5-F2-4-CF3)]P[Ac5c][NMeGly(cPent)][NMeD]-Morpholide; lactam N-11) | C (A compound having a KD ratio of 0.1 or more and less than 3 is denoted as C) | B (a compound having 3 or more and less than 10 is denoted as B) | 0.34
10 | CCCN1C(=O)CN(C)C(=O)CN(C)C(=O)[C@H]([C@@H](C)CC)NC(=O)[C@H](CC(C)C)N(C)C(=O)C[C@@H](C(=O)N(C)C)N(C)C(=O)[C@H](C2CCCC2)N(C)C(=O)C2(CCCC2)NC(=O)[C@@H]2CCCN2C(=O)[C@H](CCc2cc(F)c(C(F)(F)F)c(F)c2)NC(=O)CN(C)C(=O)[C@@H]1Cc1ccc(C(F)(F)F)cc1 [PP0788] ([NMeL]I[Sar][Sar][NPrPhe(4-CF3)][Sar][hPhe(3,5-F2-4-CF3)]P[Ac5c][NMeGly(cPent)][NMeD]-NMe2; lactam N-11) | B (a compound having 3 or more and less than 10 is denoted as B) | C (A compound having a KD ratio of 0.1 or more and less than 3 is denoted as C) | 0.054
11 | CCCN1C(=O)[C@@H]2CCN2C(=O)CN(C)C(=O)[C@H]([C@@H](C)CC)NC(=O)[C@H](CC(C)C)N(C)C(=O)C[C@@H](C(=O)N2CCOCC2)N(C)C(=O)[C@H](C2CCCC2)N(C)C(=O)C2(CCCC2)NC(=O)[C@@H]2CCCN2C(=O)[C@H](CCc2cc(F)c(C(F)(F)F)c(F)c2)NC(=O)CN(C)C(=O)[C@@H]1Cc1ccc(C(F)(F)F)cc1 [PP0789] ([NMeL]I[Sar][Aze][NPrPhe(4-CF3)][Sar][hPhe(3,5-F2-4-CF3)]P[Ac5c][NMeGly(cPent)][NMeD]-Morpholide; lactam N-11) | C (A compound having a KD ratio of 0.1 or more and less than 3 is denoted as C) | B (a compound having 3 or more and less than 10 is denoted as B) | 0.12
